According to US20170008888A1 (KYORIN PHARMACEUTICAL CO., LTD., priority 2014, published 2017):
Read-outs that look alike come from different tables or passages of the source.

Columns and labels:
[1] = tested on: ABL or ARG; test: Probe-based (AX9989) kinase profiling in Jurkat lysate: ABL or ARG; type: binding; conditions: for Kinase inhibition % at indicated screening concentration: ABL or ARG: screening concentration 1.0 μM
In short: (§1)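 Compounds were pre-incubated for 15 min at room temperature with gel-filtered Jurkat cell lysate supplemented with 20 mM MnCl2, after which the acyl phosphate ATP probe AX9989 was added at 5 μM final. Labeled active-site peptides were enriched after tryptic digestion and measured by LC/MS, with percent inhibition taken relative to samples without compound.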

[2] = molecular target: T1, ERK5 (Homo sapiens, UniProt Q13164); test: Probe-based (AX9989 acyl phosphate ATP probe) kinase profiling in Jurkat lysate: ERK5; type: binding; conditions: for IC50: Jurkat lysate
T1 construct: screened for activity against several kinases in Jurkat cells; endogenous in cells; host or cells: Jurkat cell lysate
T1 sequence (Q13164 whole entry): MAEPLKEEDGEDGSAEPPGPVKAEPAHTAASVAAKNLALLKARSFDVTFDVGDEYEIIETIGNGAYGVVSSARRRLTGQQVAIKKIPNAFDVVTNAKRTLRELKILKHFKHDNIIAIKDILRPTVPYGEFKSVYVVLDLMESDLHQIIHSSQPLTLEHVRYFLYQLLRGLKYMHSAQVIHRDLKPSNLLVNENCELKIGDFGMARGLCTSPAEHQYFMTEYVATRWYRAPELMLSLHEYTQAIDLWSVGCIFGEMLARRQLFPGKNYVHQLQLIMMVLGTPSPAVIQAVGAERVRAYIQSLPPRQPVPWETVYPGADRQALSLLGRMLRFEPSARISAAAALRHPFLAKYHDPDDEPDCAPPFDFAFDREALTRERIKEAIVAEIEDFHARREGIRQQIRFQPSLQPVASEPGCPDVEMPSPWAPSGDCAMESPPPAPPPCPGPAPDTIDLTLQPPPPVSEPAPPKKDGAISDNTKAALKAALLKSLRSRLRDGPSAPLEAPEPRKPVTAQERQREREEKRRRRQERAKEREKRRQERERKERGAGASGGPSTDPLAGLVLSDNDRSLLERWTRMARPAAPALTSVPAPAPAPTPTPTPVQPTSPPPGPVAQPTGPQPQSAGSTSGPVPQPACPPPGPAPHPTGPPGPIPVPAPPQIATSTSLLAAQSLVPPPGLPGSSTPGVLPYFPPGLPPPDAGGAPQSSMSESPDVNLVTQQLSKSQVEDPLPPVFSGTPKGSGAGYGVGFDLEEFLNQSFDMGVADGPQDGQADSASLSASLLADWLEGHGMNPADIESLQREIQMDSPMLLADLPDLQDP
In short: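 Gel-filtered Jurkat lysate (5 mg/ml, 20 mM MnCl2) preincubated 15 min at room temperature with compound, then labelled with 5 μM AX9989 acyl phosphate ATP probe. Probe-labelled ERK5 active-site peptides quantified by LC/MS after trypsin digestion and streptavidin capture; IC50 calculated from percent inhibition at the screening concentration.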

[3] = molecular target: T2, AurA (Homo sapiens, UniProt O14965); test: Probe-based (AX9989) kinase profiling in Jurkat lysate: AurA; type: binding
T2 construct: screened for activity against several kinases in Jurkat cells; endogenous in cells; host or cells: Jurkat cell lysate
T2 sequence (O14965 1-403): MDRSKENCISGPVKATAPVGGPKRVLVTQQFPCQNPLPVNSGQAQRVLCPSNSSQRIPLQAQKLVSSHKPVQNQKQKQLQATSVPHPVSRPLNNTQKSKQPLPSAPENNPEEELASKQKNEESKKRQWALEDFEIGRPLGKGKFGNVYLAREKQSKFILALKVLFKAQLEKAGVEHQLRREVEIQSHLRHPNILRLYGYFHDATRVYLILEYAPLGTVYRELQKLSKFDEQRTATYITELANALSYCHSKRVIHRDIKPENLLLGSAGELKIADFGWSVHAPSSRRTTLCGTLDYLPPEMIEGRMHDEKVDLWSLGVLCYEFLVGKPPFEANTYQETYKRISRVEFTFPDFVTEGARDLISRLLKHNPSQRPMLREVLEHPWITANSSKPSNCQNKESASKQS
In short: as §1

[4] = tested on: AurB or AurC; test: Probe-based (AX9989) kinase profiling in Jurkat lysate: AurB or AurC; type: binding; conditions: for Kinase inhibition % at indicated screening concentration: AurB or AurC: screening concentration 1.0 μM
In short: as §1

[5] = tested on: AMPKa1 or AMPKa2; test: Probe-based (AX9989) kinase profiling in Jurkat lysate: AMPKa1 or AMPKa2; type: binding; conditions: for Kinase inhibition % at indicated screening concentration: AMPKa1 or AMPKa2: screening concentration 1.0 μM
In short: as §1

[6] = tested on: human PBMCs; test: Human PBMC TNF-α response to endotoxin (ELISA); type: cell-based; conditions: 0.1 μg/ml LPS 16 h, read-out: EC50 for the inhibition of the human PBMC TNF-α response to endotoxin, ave. ± S.D.
In short: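 PBMCs at 2e6 cells/ml in RPMI 1640 with 10% charcoal-dextran-treated FBS were pre-treated 1 h at 37 °C with compound (4-point 1:5 dilution from 10 μM). Stimulation with 0.1 μg/ml E. coli 0111:B4 LPS for 16 h; TNF-α measured by ELISA (A450) in 25-fold diluted supernatant.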

[7] = molecular target: T3, JAK1 (Homo sapiens, UniProt P23458); test: Probe-based (AX9989) kinase profiling in Jurkat lysate: JAK1; type: binding
T3 construct: screened for activity against several kinases in Jurkat cells; endogenous in cells; host or cells: Jurkat cell lysate
T3 sequence (P23458 whole entry): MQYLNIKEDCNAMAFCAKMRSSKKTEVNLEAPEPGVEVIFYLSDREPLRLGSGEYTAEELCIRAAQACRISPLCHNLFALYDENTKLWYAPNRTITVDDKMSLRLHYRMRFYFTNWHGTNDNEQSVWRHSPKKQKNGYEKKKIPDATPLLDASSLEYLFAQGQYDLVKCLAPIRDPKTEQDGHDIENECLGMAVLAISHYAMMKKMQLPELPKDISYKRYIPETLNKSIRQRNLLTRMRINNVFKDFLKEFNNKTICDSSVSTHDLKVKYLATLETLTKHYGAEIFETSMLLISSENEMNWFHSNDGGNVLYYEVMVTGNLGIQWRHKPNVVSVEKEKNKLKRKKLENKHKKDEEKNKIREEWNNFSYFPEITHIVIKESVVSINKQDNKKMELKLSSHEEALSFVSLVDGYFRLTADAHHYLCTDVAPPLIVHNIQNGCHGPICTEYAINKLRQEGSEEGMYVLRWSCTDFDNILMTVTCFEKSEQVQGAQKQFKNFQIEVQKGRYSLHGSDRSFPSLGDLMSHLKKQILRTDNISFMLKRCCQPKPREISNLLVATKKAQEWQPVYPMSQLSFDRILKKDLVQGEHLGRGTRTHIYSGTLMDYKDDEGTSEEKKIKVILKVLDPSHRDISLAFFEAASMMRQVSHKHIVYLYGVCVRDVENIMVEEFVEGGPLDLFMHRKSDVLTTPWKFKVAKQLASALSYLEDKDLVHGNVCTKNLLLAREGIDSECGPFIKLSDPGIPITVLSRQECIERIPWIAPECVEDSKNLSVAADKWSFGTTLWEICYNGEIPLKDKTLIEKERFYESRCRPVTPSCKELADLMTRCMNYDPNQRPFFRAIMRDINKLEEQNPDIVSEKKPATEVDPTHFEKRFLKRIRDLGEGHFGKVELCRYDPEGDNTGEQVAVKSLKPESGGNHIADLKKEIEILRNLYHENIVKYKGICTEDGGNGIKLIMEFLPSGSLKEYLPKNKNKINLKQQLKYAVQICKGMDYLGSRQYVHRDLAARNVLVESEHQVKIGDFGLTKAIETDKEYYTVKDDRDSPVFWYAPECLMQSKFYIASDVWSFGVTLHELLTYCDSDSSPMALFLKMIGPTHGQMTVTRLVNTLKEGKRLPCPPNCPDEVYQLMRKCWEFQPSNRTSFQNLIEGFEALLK
In short: as §1

[8] = molecular target: T4, ACK (Homo sapiens, UniProt Q07912); test: Probe-based (AX9989) kinase profiling in Jurkat lysate: ACK; type: binding
T4 construct: screened for activity against several kinases in Jurkat cells; endogenous in cells; host or cells: Jurkat cell lysate
T4 sequence (Q07912 whole entry): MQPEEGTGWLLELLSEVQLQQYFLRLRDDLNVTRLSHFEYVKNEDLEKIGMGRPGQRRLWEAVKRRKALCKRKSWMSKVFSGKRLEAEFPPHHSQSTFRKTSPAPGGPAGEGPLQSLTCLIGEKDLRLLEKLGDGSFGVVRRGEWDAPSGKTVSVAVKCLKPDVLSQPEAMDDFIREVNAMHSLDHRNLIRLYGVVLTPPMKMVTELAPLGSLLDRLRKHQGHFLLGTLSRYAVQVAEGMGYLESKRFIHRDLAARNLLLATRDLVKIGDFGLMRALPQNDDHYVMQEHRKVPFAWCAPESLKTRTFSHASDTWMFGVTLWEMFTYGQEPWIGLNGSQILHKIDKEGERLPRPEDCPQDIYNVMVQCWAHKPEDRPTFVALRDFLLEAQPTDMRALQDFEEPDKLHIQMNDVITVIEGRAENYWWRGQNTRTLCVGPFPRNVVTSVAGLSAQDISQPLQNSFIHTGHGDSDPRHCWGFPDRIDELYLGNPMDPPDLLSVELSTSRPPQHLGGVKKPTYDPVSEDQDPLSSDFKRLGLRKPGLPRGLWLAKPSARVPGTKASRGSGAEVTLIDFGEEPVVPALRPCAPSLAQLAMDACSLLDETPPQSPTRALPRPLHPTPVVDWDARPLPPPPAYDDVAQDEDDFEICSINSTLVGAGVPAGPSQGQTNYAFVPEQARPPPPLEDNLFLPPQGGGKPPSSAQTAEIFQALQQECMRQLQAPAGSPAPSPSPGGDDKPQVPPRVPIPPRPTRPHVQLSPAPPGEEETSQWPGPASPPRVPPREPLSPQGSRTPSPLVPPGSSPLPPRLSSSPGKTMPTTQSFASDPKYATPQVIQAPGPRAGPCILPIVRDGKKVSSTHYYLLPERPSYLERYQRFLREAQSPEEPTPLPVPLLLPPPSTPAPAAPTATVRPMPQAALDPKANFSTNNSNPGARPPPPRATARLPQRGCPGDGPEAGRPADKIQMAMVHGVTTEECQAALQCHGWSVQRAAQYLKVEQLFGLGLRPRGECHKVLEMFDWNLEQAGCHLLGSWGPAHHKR
In short: as §1

[9] = molecular target: T5, TAO2 (Homo sapiens, UniProt Q9UL54); test: Probe-based (AX9989) kinase profiling in Jurkat lysate: TAO2; type: binding
T5 construct: screened for activity against several kinases in Jurkat cells; endogenous in cells; host or cells: Jurkat cell lysate
T5 sequence (Q9UL54 1-1235): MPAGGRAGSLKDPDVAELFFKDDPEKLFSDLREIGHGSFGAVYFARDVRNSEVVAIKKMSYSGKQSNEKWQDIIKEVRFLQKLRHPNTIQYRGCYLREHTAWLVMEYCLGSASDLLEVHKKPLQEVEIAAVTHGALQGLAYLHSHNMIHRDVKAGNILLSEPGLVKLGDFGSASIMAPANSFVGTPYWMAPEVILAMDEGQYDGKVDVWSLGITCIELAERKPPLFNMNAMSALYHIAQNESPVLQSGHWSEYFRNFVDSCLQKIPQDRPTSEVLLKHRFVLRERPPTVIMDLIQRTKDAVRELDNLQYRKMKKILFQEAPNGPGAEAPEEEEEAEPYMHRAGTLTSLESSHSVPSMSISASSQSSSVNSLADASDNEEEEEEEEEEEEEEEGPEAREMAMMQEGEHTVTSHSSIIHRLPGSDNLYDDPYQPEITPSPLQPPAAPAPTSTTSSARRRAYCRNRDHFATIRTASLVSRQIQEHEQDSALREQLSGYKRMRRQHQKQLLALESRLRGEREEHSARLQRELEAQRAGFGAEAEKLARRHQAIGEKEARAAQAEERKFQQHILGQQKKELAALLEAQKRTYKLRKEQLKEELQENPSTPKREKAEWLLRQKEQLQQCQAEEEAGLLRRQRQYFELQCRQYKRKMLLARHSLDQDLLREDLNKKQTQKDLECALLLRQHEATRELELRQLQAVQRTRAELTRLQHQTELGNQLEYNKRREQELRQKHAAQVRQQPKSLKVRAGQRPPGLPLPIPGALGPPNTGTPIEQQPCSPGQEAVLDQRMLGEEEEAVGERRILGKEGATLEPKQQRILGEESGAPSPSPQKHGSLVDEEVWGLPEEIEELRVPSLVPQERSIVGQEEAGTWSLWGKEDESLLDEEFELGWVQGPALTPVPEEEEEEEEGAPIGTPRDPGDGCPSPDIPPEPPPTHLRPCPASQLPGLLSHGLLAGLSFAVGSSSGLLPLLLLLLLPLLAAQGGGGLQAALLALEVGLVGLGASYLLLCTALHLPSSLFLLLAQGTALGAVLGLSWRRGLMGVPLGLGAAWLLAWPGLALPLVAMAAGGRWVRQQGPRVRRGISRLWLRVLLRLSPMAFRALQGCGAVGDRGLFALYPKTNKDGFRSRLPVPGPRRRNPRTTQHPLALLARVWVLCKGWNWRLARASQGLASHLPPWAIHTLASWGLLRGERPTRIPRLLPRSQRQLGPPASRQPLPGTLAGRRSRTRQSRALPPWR
In short: as §1

[10] = calculated from percent inhibition of AX9989 labeling and the screening concentration
[11] = screening concentration 1.0 μM, read-out: Kinase inhibition % at indicated screening concentration: ERK5
[12] = screening concentration 1.0 μM, read-out: Kinase inhibition % at indicated screening concentration: AurA
[13] = screening concentration 1.0 μM, read-out: Kinase inhibition % at indicated screening concentration: JAK1
[14] = screening concentration 1.0 μM, read-out: Kinase inhibition % at indicated screening concentration: ACK
[15] = screening concentration 1.0 μM, read-out: Kinase inhibition % at indicated screening concentration: TAO2
[16] = calculated from percent inhibition and screening concentration, AX9989 probe
[17] = screening concentration 1 μM, read-out: ERK5 Inhibition % at indicated screening concentration
[18] = screening concentration 1 μM, read-out: AurA Inhibition % at indicated screening concentration
[19] = screening concentration 1 μM, read-out: JAK1 Inhibition % at indicated screening concentration
[20] = screening concentration 1 μM, read-out: ACK Inhibition % at indicated screening concentration
[21] = screening concentration 1 μM, read-out: TAO2 Inhibition % at indicated screening concentration

SMILES	ABL or ARG Inhibition % at indicated screening concentration ([1]; screening concentration 1 μM)	IC50 [2, 16] [µM]	inhibition at 1 µM [2, 17] [%]	inhibition at 1 µM [3, 18] [%]	AurB or AurC Inhibition % at indicated screening concentration ([4]; screening concentration 1 μM)	AMPKa1 or AMPKa2 Inhibition % at indicated screening concentration ([5]; screening concentration 1 μM)	inhibition at 1 µM [7, 19] [%]	inhibition at 1 µM [8, 20] [%]	inhibition at 1 µM [9, 21] [%]	EC50 [6] [µM]	other results
CCOc1cc(C)ccc1Nc1cc2c(cn1)N(C)C(=O)c1ccccc1N2C [Compound 95]	–	–	–	–	–	–	–	–	–	3.73	Kinase inhibition % at indicated screening concentration: ABL or ARG [1]: E (E is ≦35%); IC50 [2, 10]: > 0.5 µM; inhibition at 1 µM [2, 11]: ≤ 35%; inhibition at 1 µM [3, 12]: ≤ 35%; Kinase inhibition % at indicated screening concentration: AurB or AurC [4]: E (E is ≦35%); Kinase inhibition % at indicated screening concentration: AMPKa1 or AMPKa2 [5]: E (E is ≦35%); inhibition at 1 µM [7, 13]: ≤ 35%; inhibition at 1 µM [8, 14]: ≤ 35%; inhibition at 1 µM [9, 15]: ≤ 35%
COc1cc(C)c(Nc2cc3c(cn2)N(C)C(=O)c2ccccc2N3C)cn1 [Compound 116]	–	–	–	–	–	–	–	–	–	4.37	Kinase inhibition % at indicated screening concentration: ABL or ARG [1]: E (E is ≦35%); IC50 [2, 10]: > 0.5 µM; inhibition at 1 µM [2, 11]: 50 to 75%; inhibition at 1 µM [3, 12]: ≤ 35%; Kinase inhibition % at indicated screening concentration: AurB or AurC [4]: E (E is ≦35%); Kinase inhibition % at indicated screening concentration: AMPKa1 or AMPKa2 [5]: E (E is ≦35%); inhibition at 1 µM [7, 13]: ≤ 35%; inhibition at 1 µM [8, 14]: ≤ 35%; inhibition at 1 µM [9, 15]: ≤ 35%
CCOc1cc(C(=O)N2CCCNCC2)ccc1Nc1cc2c(cn1)N(C)C(=O)c1scnc1N2C [Compound T7]	E (E is ≦35%)	0.05 to 0.1	> 90	≤ 35	E (E is ≦35%)	E (E is ≦35%)	≤ 35	≤ 35	≤ 35	0.34	–
CCOc1cc(C(=O)N2CCC(N3CCCC3)CC2)ccc1Nc1cc2c(cn1)N(C)C(=O)N1C=CC=CC1=N2 [Compound T66]	–	> 0.5	–	–	–	–	–	–	–	> 10	ABL or ARG Inhibition % at indicated screening concentration ([1]; screening concentration 10 μM): E (E is ≦35%); inhibition at 10 µM ([2]; screening concentration 10 μM, read-out: ERK5 Inhibition % at indicated screening concentration): 35 to 50%; inhibition at 10 µM ([3]; screening concentration 10 μM, read-out: AurA Inhibition % at indicated screening concentration): ≤ 35%; AurB or AurC Inhibition % at indicated screening concentration ([4]; screening concentration 10 μM): E (E is ≦35%); AMPKa1 or AMPKa2 Inhibition % at indicated screening concentration ([5]; screening concentration 10 μM): E (E is ≦35%); inhibition at 10 µM ([7]; screening concentration 10 μM, read-out: JAK1 Inhibition % at indicated screening concentration): ≤ 35%; inhibition at 10 µM ([8]; screening concentration 10 μM, read-out: ACK Inhibition % at indicated screening concentration): 50 to 75%; inhibition at 10 µM ([9]; screening concentration 10 μM, read-out: TAO2 Inhibition % at indicated screening concentration): ≤ 35%

Continued, in another order:

ABL or ARG Inhibition % at indicated screening concentration ([1]; screening concentration 1 μM)	IC50 [2, 16] [µM]	inhibition at 1 µM [2, 17] [%]	inhibition at 1 µM [3, 18] [%]	AurB or AurC Inhibition % at indicated screening concentration ([4]; screening concentration 1 μM)	AMPKa1 or AMPKa2 Inhibition % at indicated screening concentration ([5]; screening concentration 1 μM)	inhibition at 1 µM [7, 19] [%]	inhibition at 1 µM [8, 20] [%]	inhibition at 1 µM [9, 21] [%]	SMILES	EC50 [6] [µM]	other results
E (E is ≦35%)	≤ 0.05	> 90	≤ 35	E (E is ≦35%)	E (E is ≦35%)	≤ 35	≤ 35	≤ 35	CCOc1cc(C(=O)N2CCC(N3CCCC3)CC2)ccc1Nc1cc2c(cn1)N(C)C(=O)c1scnc1N2C [Compound T6]	0.4	–
E (E is ≦35%)	0.101 to 0.5	50 to 75	≤ 35	E (E is ≦35%)	E (E is ≦35%)	≤ 35	≤ 35	≤ 35	CCOc1cc(C(=O)N[C@H]2CC[C@H](C#N)CC2)ccc1Nc1cc2c(cn1)N(C)C(=O)c1ccccc1N2C [Compound T59]	0.72	–
E (E is ≦35%)	≤ 0.05	> 90	≤ 35	E (E is ≦35%)	E (E is ≦35%)	≤ 35	35 to 50	≤ 35	CCOc1cc(C(=O)N2CCN(C(C)=O)CC2)ccc1Nc1cc2c(cn1)N(C)C(=O)c1ccccc1N2C1CC1 [Compound T67]	4.9	–
E (E is ≦35%)	≤ 0.05	> 90	≤ 35	E (E is ≦35%)	E (E is ≦35%)	≤ 35	≤ 35	≤ 35	CCOc1cc(C(=O)N2CC[C@@H](N3CCN(C)CC3)C2)ccc1Nc1cc2c(cn1)N(C)C(=O)c1ccccc1N2C1CC1 [Compound T68]	1.4	–
E (E is ≦35%)	≤ 0.05	> 90	≤ 35	E (E is ≦35%)	E (E is ≦35%)	≤ 35	35 to 50	≤ 35	CN1CCN([C@@H]2CCN(C(=O)c3ccc(Nc4cc5c(cn4)N(C)C(=O)c4ccccc4N5C)c(F)c3)C2)CC1 [Compound T69]	3.48	–
E (E is ≦35%)	≤ 0.05	> 90	≤ 35	E (E is ≦35%)	E (E is ≦35%)	≤ 35	≤ 35	≤ 35	CC(=O)N1CCN(C(=O)c2ccc(Nc3cc4c(cn3)N(C)C(=O)c3ccccc3N4C)c(F)c2)CC1 [Compound T71]	4.2	–
